Source: the supplement of paper PMC10307832

Columns and labels:
Assay in all cases: relative viability (nuclei count vs DMSO), 5 days (fraction); higher = more cells survive
Sulindac + Foretinib = compound: CC1=C(CC(=O)O)c2cc(F)ccc2/C1=C\c1ccc([S+](C)[O-])cc1 [Sulindac] + COc1cc2c(Oc3ccc(NC(=O)C4(C(=O)Nc5ccc(F)cc5)CC4)cc3F)ccnc2cc1OCCCN1CCOCC1 [Foretinib] (partner 0.25 µM)
Procedure, shortened: (§1)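 For relative viability, nuclei counts in treated wells were divided by those in vehicle wells. Lung cancer cell lines had been pin-tool dosed in 1536-well plates the day after seeding and cultured for 5 days, then fixed and stained in one step (final 0.05% Triton X-100, 1% formaldehyde, 1 ug/ml Hoechst) and imaged at 4×. Doses were one drug alone or a fixed anchor-drug dose plus five library-drug doses (not always all listed) in √10 steps, and values are duplicate-plate medians.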

[1] = compound: O=c1[nH]cc(F)c(=O)[nH]1 [5-Fluorouracil] + C[C@]1(O)C[C@@H](c2nc(-c3ccc4ccc(-c5ccccc5)nc4c3)c3c(N)nccn32)C1 [Linsitinib] (partner 1 µM)
Procedure, shortened: as §1

Sulindac + Trametinib = compound: CC1=C(CC(=O)O)c2cc(F)ccc2/C1=C\c1ccc([S+](C)[O-])cc1 [Sulindac] + CC(=O)Nc1cccc(-n2c(=O)n(C3CC3)c(=O)c3c(Nc4ccc(I)cc4F)n(C)c(=O)c(C)c32)c1 [Trametinib] (partner 0.02 µM)
Procedure, shortened: as §1

Sulindac + OSI-027 = compound: CC1=C(CC(=O)O)c2cc(F)ccc2/C1=C\c1ccc([S+](C)[O-])cc1 [Sulindac] + COc1cccc2cc(-c3nc([C@H]4CC[C@H](C(=O)O)CC4)n4ncnc(N)c34)[nH]c12 [OSI-027] (partner 0.5 µM)
Procedure, shortened: as §1

| Cell Line | relative viability (Sulindac + Foretinib; first compound 0.08 µM) | relative viability (Sulindac + Foretinib; first compound 0.253 µM) | relative viability (Sulindac + Foretinib; first compound 0.8 µM) | relative viability (Sulindac + Foretinib; first compound 2.53 µM) | relative viability (Sulindac + Foretinib; first compound 8 µM) | relative viability ([1]; first compound 0.02 µM) | relative viability ([1]; first compound 0.2 µM) | relative viability ([1]; first compound 0.6325 µM) | relative viability ([1]; first compound 2 µM) | relative viability (Sulindac + Trametinib; first compound 0.08 µM) | relative viability (Sulindac + Trametinib; first compound 0.253 µM) | relative viability (Sulindac + Trametinib; first compound 0.8 µM) | relative viability (Sulindac + Trametinib; first compound 2.53 µM) | relative viability (Sulindac + Trametinib; first compound 8 µM) | relative viability (Sulindac + OSI-027; first compound 0.08 µM) | relative viability (Sulindac + OSI-027; first compound 0.253 µM) | relative viability (Sulindac + OSI-027; first compound 0.8 µM) | relative viability (Sulindac + OSI-027; first compound 2.53 µM) | relative viability (Sulindac + OSI-027; first compound 8 µM) |
| --- | --- | --- | --- | --- | --- | --- | --- | --- | --- | --- | --- | --- | --- | --- | --- | --- | --- | --- | --- |
| LU99A | 0.87 | 0.808 | 0.934 | 0.791 | 0.926 | 0.549 | 0.607 | 0.426 | 0.422 | 0.587 | 0.585 | 0.482 | 0.503 | 0.687 | 0.306 | 0.289 | 0.284 | 0.299 | 0.306 |
| LXF-289 | 0.98 | 1.05 | 0.98 | 1.02 | 1.03 | 1 | 0.67 | 0.389 | 0.308 | 0.745 | 0.713 | 0.666 | 0.695 | 0.686 | 0.829 | 0.863 | 0.749 | 0.753 | 0.844 |
| NCI-H522 | – | – | – | – | – | – | – | – | – | 0.628 | 0.75 | 0.547 | 0.747 | 0.734 | 0.788 | 0.777 | 0.666 | 0.62 | 0.645 |
| NCI-H1299 | 1.13 | 1.09 | 1.06 | 1.02 | 1.15 | 1.09 | 0.982 | 0.825 | 0.59 | – | – | – | – | – | – | – | – | – | – |
| NCI-H1563 | 0.98 | 1.02 | 0.912 | 0.89 | 0.99 | 1.08 | 1.25 | 1.12 | 0.994 | – | – | – | – | – | 0.754 | 0.784 | 0.762 | 0.703 | 0.784 |
| NCI-H1623 | 0.875 | 0.779 | 0.637 | 0.873 | 0.923 | – | – | – | – | – | – | – | – | – | 0.401 | 0.427 | 0.415 | 0.409 | 0.421 |
| NCI-H1648 | – | – | – | – | – | – | – | – | – | 0.379 | 0.414 | – | 0.473 | 0.422 | 0.25 | 0.242 | 0.298 | 0.268 | 0.265 |
| NCI-H1650 | 1.05 | 1.21 | – | 1.24 | 1.32 | – | – | – | – | 0.599 | 0.794 | 0.445 | 0.491 | 0.766 | 0.452 | 0.567 | – | 0.45 | 0.734 |
| NCI-H1703 | 0.276 | 0.389 | 0.355 | 0.382 | 0.377 | 0.665 | 1.16 | 0.856 | 0.484 | – | – | – | – | – | – | – | – | – | – |
| NCI-H1792 | – | – | – | – | – | 0.554 | 0.484 | 0.14 | 0.0794 | 0.425 | 0.393 | – | 0.512 | 0.513 | 0.848 | 0.884 | – | 0.815 | 0.899 |
| NCI-H2170 | 1.1 | 0.547 | 1.05 | 0.978 | 1.01 | – | – | – | – | 1.24 | 0.938 | 0.83 | 0.936 | 0.946 | 0.694 | 0.72 | 0.684 | 0.739 | 0.756 |
| NCI-H2342 | 0.86 | 0.952 | 1.02 | 0.948 | 1.07 | – | – | – | – | 0.829 | 0.81 | 0.721 | 0.826 | 0.825 | 0.591 | 0.578 | 0.546 | 0.618 | 0.694 |
| SW 900 | – | 0.645 | – | 0.948 | 1.11 | – | – | – | – | 0.847 | 0.982 | – | – | 0.945 | – | 0.566 | – | 0.42 | 0.555 |
